In patent US8580918B2, “Peptidic GLP-2 agonists” (Ferring B.V., priority 2009, dated 2013):
Where a SMILES comes first, the peptide text is derived from it. [ ]: non-standard residue; d: D form. dPhe(3-Cl) = N[C@H](Cc1cccc(Cl)c1)C(=O)O; Nle = CCCC[C@H](N)C(=O)O

Test: Pharmacokinetics in rats after intravenous bolus injection (systemic clearance)
Format: in vivo
Conditions: rat, plasma, 0.2 mg FB/kg, adult male Sprague-Dawley rats, i.v. bolus, dose 0.20 mg FB/kg, read-out: CL (ml/kg/min) Average
Procedure, shortened: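 Systemic clearance from noncompartmental analysis as dose per kg over trapezoidal AUC extrapolated to infinity, mean and SD across animals. Plasma (K2EDTA) levels by LC/MS/MS after single IV jugular-vein bolus, 0.1-1.0 mg/kg, in 3-4 cannulated male Sprague-Dawley rats.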

Compound	clearance [mL/kg/min]
CCCC[C@H](NC(=O)[C@H](CCC(=O)O)NC(=O)[C@H](CC(=O)O)NC(=O)[C@H](CO)NC(=O)[C@H](Cc1ccccc1)NC(=O)[C@H](CO)NC(=O)CNC(=O)[C@H](CC(=O)O)NC(=O)CNC(=O)[C@@H](N)Cc1c[nH]cn1)C(=O)N[C@H](Cc1ccccc1)C(=O)N[C@H](C(=O)N[C@H](C(=O)N[C@@H](CC(C)C)C(=O)N[C@@H](CC(=O)O)C(=O)N[C@@H](Cc1ccccc1)C(=O)N[C@@H](CC(C)C)C(=O)N[C@@H](C)C(=O)N[C@@H](C)C(=O)N[C@@H](CCCNC(=N)N)C(=O)N[C@@H](CC(=O)O)C(=O)N[C@@H](Cc1ccccc1)C(=O)N[C@H](C(=O)N[C@@H](CC(N)=O)C(=O)N[C@@H](Cc1c[nH]c2ccccc12)C(=O)N[C@@H](CC(C)C)C(=O)N[C@H](C(=O)N[C@@H](CCC(N)=O)C(=O)N[C@H](C(=O)N[C@@H](CCCCN)C(=O)N[C@H](C(=O)N[C@H](C(=O)N[C@@H](CC(=O)O)C(N)=O)[C@@H](C)O)[C@@H](C)CC)[C@@H](C)O)[C@@H](C)CC)[C@@H](C)CC)[C@@H](C)CC)[C@@H](C)O [Compound 63, [Gly2,Nle10,D-Phe11,Phe16] hGLP-2(1-33)-NH2] (H-HGDGSFSDE[Nle][dF]TILDFLAARDFINWLIQTKITD-NH2)	0.24
CCCC[C@H](NC(=O)[C@H](CCC(=O)O)NC(=O)[C@H](CC(=O)O)NC(=O)[C@H](CO)NC(=O)[C@H](Cc1ccccc1)NC(=O)[C@H](CO)NC(=O)CNC(=O)[C@H](CC(=O)O)NC(=O)CNC(=O)[C@@H](N)Cc1c[nH]cn1)C(=O)N[C@H](Cc1ccccc1)C(=O)N[C@H](C(=O)N[C@H](C(=O)N[C@@H](CC(C)C)C(=O)N[C@@H](CC(=O)O)C(=O)N[C@@H](Cc1ccccc1)C(=O)N[C@@H](CC(C)C)C(=O)N[C@@H](C)C(=O)N[C@@H](C)C(=O)N[C@@H](CCCNC(=N)N)C(=O)N[C@@H](CC(=O)O)C(=O)N[C@@H](Cc1ccccc1)C(=O)N[C@H](C(=O)N[C@@H](CC(N)=O)C(=O)N[C@@H](Cc1c[nH]c2ccccc12)C(=O)N[C@@H](CC(C)C)C(=O)N[C@H](C(=O)N[C@@H](CCC(N)=O)C(=O)N[C@H](C(=O)N[C@@H](CCCCN)C(=O)N[C@H](C(=O)N[C@H](C(=O)N[C@@H](CC(=O)O)C(=O)O)[C@@H](C)O)[C@@H](C)CC)[C@@H](C)O)[C@@H](C)CC)[C@@H](C)CC)[C@@H](C)CC)[C@@H](C)O [Compound 64, [Gly2,Nle10,D-Phe11,Phe16] hGLP-2(1-33)-OH] (H-HGDGSFSDE[Nle][dF]TILDFLAARDFINWLIQTKITD-OH)	0.15
CCCC[C@H](NC(=O)[C@H](CCC(=O)O)NC(=O)[C@H](CC(=O)O)NC(=O)[C@H](CO)NC(=O)[C@H](Cc1ccccc1)NC(=O)[C@H](CO)NC(=O)CNC(=O)[C@H](CC(=O)O)NC(=O)CNC(=O)[C@@H](N)Cc1c[nH]cn1)C(=O)N[C@H](Cc1cccc(Cl)c1)C(=O)N[C@H](C(=O)N[C@H](C(=O)N[C@@H](CC(C)C)C(=O)N[C@@H](CC(=O)O)C(=O)N[C@@H](Cc1ccccc1)C(=O)N[C@@H](CC(C)C)C(=O)N[C@@H](C)C(=O)N[C@@H](C)C(=O)N[C@@H](CCCNC(=N)N)C(=O)N[C@@H](CC(=O)O)C(=O)N[C@@H](Cc1ccccc1)C(=O)N[C@H](C(=O)N[C@@H](CC(N)=O)C(=O)N[C@@H](Cc1c[nH]c2ccccc12)C(=O)N[C@@H](CC(C)C)C(=O)N[C@H](C(=O)N[C@@H](CCC(N)=O)C(=O)N[C@H](C(=O)N[C@@H](CCCCN)C(=O)N[C@H](C(=O)N[C@H](C(=O)N[C@@H](CC(=O)O)C(N)=O)[C@@H](C)O)[C@@H](C)CC)[C@@H](C)O)[C@@H](C)CC)[C@@H](C)CC)[C@@H](C)CC)[C@@H](C)O [Compound 66, [Gly2,Nle10,D-3-Cpa11,Phe16] hGLP-2(1-33)-NH2] (H-HGDGSFSDE[Nle][dPhe(3-Cl)]TILDFLAARDFINWLIQTKITD-NH2)	0.12
